The source of these data is article PMC2614347, “A Novel Peptide Enhances Therapeutic Efficacy of Liposomal Anti-Cancer Drugs in Mice Models of Human Lung Cancer” (PLoS ONE, 2009).

Ends that are not written are not given here.

Data set [1] concerns CL1-5 cells.
Experimental: (§4) FITC-labeled SP5-2 binding to NSCLC cells was analyzed by flow cytometry.
The test system of data set [2] is PC13 cells.
Experimental: as §4
The test system of data set [3] is CL1-5 cells. The data set is described as follows: Phage binding to cells, immunohistochemical staining. Set-up: species or system human. The note with it: immunohistochemistry, anti-M13 mAb. As for the experimental part:
(§1) Cells were plated and grown to about 80% confluence on cover slips. The cover slips were treated with 3% hydrogen peroxide plus 0.1% NaN3 to block endogenous peroxidase activity, and then incubated with phages. After the cover slips had been washed and fixed with 3% paraformaldehyde, they were incubated with HRP-labeled mouse anti-M13 mAb and treated with peroxidase substrate. For the peptide binding assays, 30 µg/ml FITC-labeled SP5-2 or control peptide was added on each cover slip and incubated. They were counterstained with Hoechst 33258 (Molecular Probes, OR, USA) and mounted with a mounting solution (Vector, CA, USA). The cells were then examined under a Leica universal microscope. The images were merged using the SimplePCI software (C-IMAGING, PA, USA).

In data set [4] the test system is PC13 cells. The description is as above. The settings on record: immunohistochemistry, anti-M13 mAb. Details: species or system human. The method, then:
as §1

The subject of data set [5] is nasopharyngeal carcinoma cells (NPC-TW01). The description is as above. The note with it: immunohistochemistry, anti-M13 mAb. Details: species or system human. As for the experimental part:
as §1

The test system of data set [6] is normal epithelial cells (NNM) from nasal mucosa. Described as above. Details: species or system human. The settings on record: immunohistochemistry, anti-M13 mAb. As for the experimental part:
as §1

A further data set concerns oral cancer (SAS) cells. The data set is described as above. The note with it: immunohistochemistry, anti-M13 mAb. Details: species or system human. As for the experimental part:
as §1

A further data set relates to NPC-TW01 cells. The data set is described as follows: Phage binding, immunofluorescent staining. Details: species or system human.
Data set [7] relates to CL1-5 cells. Put plainly: Phage binding and peptide competition, flow cytometry. Details: species or system human. The settings on record: fraction of cells gated for positive binding. As for the experimental part:
(§2) The lung and other cancer cell lines were collected using PBS containing 50 mM EDTA, then incubated with phages or FITC-labeled peptides. For the peptide competitive inhibition assay, phages were mixed with different concentrations of the synthetic peptide and the mixture was incubated with the cells. After washing, the phage-bound cells were incubated with anti-M13 mAbs and then treated with FITC-conjugated goat anti-mouse IgG antibody. Cells were washed and analyzed with a flow cytometer (Becton Dickinson)
(§3) Fig. S2. The binding activity of PC5-2 to NSCLC cells was analyzed by flow cytometry. The samples included cells only (a, green), control phage (b, red), and PC5-2 (blue). The percentages indicate the fraction of cells gated for positive binding (c).

For the next data set, the system named is NNM cells. Put plainly: Phage binding, flow cytometry. Set-up: species or system human. As for the experimental part: as §2, §3
Background: Flow cytometry measures light scatter and fluorescence of single cells or particles in a stream.

The next data set concerns SAS cells. Put plainly: Phage binding, flow cytometry. Set-up: species or system human. The method, then: as §2, §3
Data set [8] has as its system surgical specimens of human lung cancer (pulmonary adenocarcinoma). Put plainly: Binding of phages and synthetic peptides to surgical specimens of lung cancer, immunohistochemistry. The method, then:
For localization of peptide binding on lung cancer tissues, frozen sections of NSCLC tissues were prepared and incubated with phage clones or biotin-labeled peptides. For the peptide competitive inhibition assay, phages were mixed with the synthetic targeting or mutant peptide. The slides were subjected to routine immunohistochemical staining, [30]. All surgical specimens were obtained from the tissue bank of National Taiwan University Hospital (NTUH) with approval from the Institutional Review Board in NTUH (IRB9461702021).

Another data set deals with CL1-5-derived tumors. Put plainly: In vivo homing and tissue distribution of phages. Details: species or system SCID mice. The method, then: SCID mice were injected subcutaneously (s.c.) in the dorsolateral flank with 1×10^7 human NSCLC cells. The mice bearing size-matched lung cancer xenografts (approximately 500 mm^3) were injected i.v. with 10^9 pfu of the targeting or control phage. After perfusion, xenograft tumors and mouse organs were removed and homogenized. The phages bound to each tissue sample were recovered through the addition of ER2738 bacteria and titered on IPTG/X-Gal agar plates. In the peptide competitive inhibition experiments, the phages were injected along with 100 µg synthetic targeting peptide, control peptide or mutant peptide. The organs and tumor masses were fixed in Bouin's solution (Sigma, MO, USA). After fixation, the samples were embedded in paraffin blocks. The paraffin sections were deparaffinized, rehydrated, and subjected to immunostaining using the mouse M13 mAb as described above.

The subject of a further data set is CL1-5-derived xenografts. The data set is described as follows: Ligand-targeted therapy of lung cancer xenografts. The format is in vivo, SCID mice. The settings on record: doxorubicin 1 mg/kg i.v. twice a week, eight injections; n = 6. As for the experimental part:
Mice 4–6 weeks of age were injected s.c. in the dorsolateral flank with human NSCLC cells. […] Mouse body weights and tumor sizes were measured twice a week. Tumor volumes were calculated using the equation: length×(width)^2×0.52. Animal care was carried out in accordance with guidelines of Academia Sinica, Taiwan.

The next data set relates to H460-derived xenografts. Put plainly: Ligand-targeted therapy of lung cancer xenografts. In kind it is in vivo, SCID mice. The note with it: doxorubicin 1 mg/kg i.v. twice a week, eight injections.
Data set [9] is described as follows: Pharmacokinetic and biodistribution study of doxorubicin formulations. The format is in vivo, SCID mice. The settings on record: 2 mg/kg i.v., n = 3 per time point. The method, then:
At selected time points, three mice in each group were anaesthetized and sacrificed. Blood samples were collected through submaxillary punctures, and plasma samples were prepared. After perfusion, xenograft tumors and mouse organs were removed and homogenized.

The test system of a further data set is NSCLC xenografts. The data set is described as follows: Doxorubicin autofluorescence microscopy of tumor sections. The note with it: fluorescence microscope; 1, 4 and 24 hours post-injection. The format is in vivo, SCID mice. The text has this:
Tissue sections were imaged with a FLUAR 10×/0.50 NA lens and captured with a Roper Scientific CoolSnap HQ CCD camera. All images were captured in 8-bit signal depth and subsequently pseudo-colored.

Experimental for A549 cells: as §4
Experimental for H23 cells: as §4
Experimental for H460 cells: as §4

TDSILRSYDWTY [SP5-2]: the “Proportion of CL1-5 cells bound by SP5-2” value with CL1-5 cells [1] is listed as 43.0%. In addition, the “Proportion of H460 cells bound by SP5-2” value in the data set with H460 cells came to 45.8%. Moreover, the “Proportion of A549 cells bound by SP5-2” value with A549 cells stood at 44.3%. For the same compound, the “Proportion of PC13 cells bound by SP5-2” value in the data set on PC13 cells [2] turned out to be 20.1%. Also, the “Proportion of H23 cells bound by SP5-2” value in the data set with H23 cells was found to be 44.0%.
Take TDSILRSYDWTY [PC5-2]: the “Binding of phage to CL1-5 cells” value in the data set with CL1-5 cells [3] is on record as “bound specifically”. For the same compound, in the data set with PC13 cells [4], the “Binding of phage to PC13 cells” value is “bound specifically”. For the same compound, the “Binding of phage to NPC-TW01 cells” value in data set [5] was “bound neither”; with NPC-TW01 cells, “did not bind”. The “Binding of phage to NNM cells” value was “nor to normal epithelial cells” in data set [6] and “did not bind” in the data set on NNM cells. Further, the “Binding of phage to SAS cells” value in the data set on oral cancer (SAS) cells is given as “bound neither”; in the data set on SAS cells it was “did not bind”. In the data set with CL1-5 cells [7], the “CL1-5 cells bound by phage” value is 42.6%. Besides, in data set [8] (frozen sections), the “Recognition of tumor cells of NSCLC surgical specimens” value is listed as “recognized”. The “Reaction area, HLC 1” value in [8] (human lung cancer surgical specimen HLC 1) is on record as “+++ (>50%)”. In addition, in data set [8] (human lung cancer surgical specimen HLC 2), the “Reaction area, HLC 2” value is listed as “+++ (>50%)”. The “Reaction area, HLC 3” value in [8] (human lung cancer surgical specimen HLC 3) was “- (0%)”. Moreover, in [8] (human lung cancer surgical specimen HLC 4), the “Reaction area, HLC 4” value is “+ (<20%)”. Also, the “Reaction area, HLC 5” value in data set [8] (human lung cancer surgical specimen HLC 5) is reported as “+++ (>50%)”. For the same compound, the “Reaction area, HLC 6” value in data set [8] (human lung cancer surgical specimen HLC 6) is given as “++ (50~20%)”. The “Reaction area, HLC 7” value in data set [8] (human lung cancer surgical specimen HLC 7) was “++ (50~20%)”. The “Reaction area, HLC 8” value in data set [8] (human lung cancer surgical specimen HLC 8) is on record as “++ (50~20%)”. Also, in data set [8] (human lung cancer surgical specimen HLC 9), the “Reaction area, HLC 9” value was “+ (<20%)”. In [8] (human lung cancer surgical specimen HLC 10), the “Reaction area, HLC 10” value was “- (0%)”. In addition, the “Reaction area, HLC 11” value in data set [8] (human lung cancer surgical specimen HLC 11) is on record as “++ (50~20%)”. In addition, in [8] (human lung cancer surgical specimen HLC 12), the “Reaction area, HLC 12” value was “++ (50~20%)”. In data set [8] (human lung cancer surgical specimen HLC 13), the “Reaction area, HLC 13” value is given as “+ (<20%)”. In addition, the “Reaction area, HLC 14” value in data set [8] (human lung cancer surgical specimen HLC 14) is recorded as “- (0%)”. In addition, the “Reaction area, HLC 15” value in [8] (human lung cancer surgical specimen HLC 15) was “+++ (>50%)”. Moreover, the “Reaction area, HLC 16” value in data set [8] (human lung cancer surgical specimen HLC 16) is recorded as “- (0%)”. For the same compound, the “Reaction area, HLC 17” value in [8] (human lung cancer surgical specimen HLC 17) is reported as “- (0%)”. Besides, the “Reaction area, HLC 18” value in [8] (human lung cancer surgical specimen HLC 18) is “++ (50~20%)”. For the same compound, in data set [8] (human lung cancer surgical specimen HLC 19), the “Reaction area, HLC 19” value is “+++ (>50%)”. In addition, the “Reaction area, HLC 20” value in data set [8] (human lung cancer surgical specimen HLC 20) is “+++ (>50%)”. Besides, the “Reaction area, HLC 21” value in [8] (human lung cancer surgical specimen HLC 21) is reported as “++ (50~20%)”. Besides, the “Reaction area, HLC 22” value in [8] (human lung cancer surgical specimen HLC 22) is on record as “- (0%)”. The “Reaction area, HLC 23” value in [8] (human lung cancer surgical specimen HLC 23) is recorded as “- (0%)”. Besides, in data set [8] (human lung cancer surgical specimen HLC 24), the “Reaction area, HLC 24” value is reported as “++ (50~20%)”. The “Reaction area, HLC 25” value in [8] (human lung cancer surgical specimen HLC 25) is “+++ (>50%)”. In addition, the “Reaction area, HLC 26” value in data set [8] (human lung cancer surgical specimen HLC 26) is “+++ (>50%)”. Moreover, the “Reaction area, HLC 27” value in [8] (human lung cancer surgical specimen HLC 27) is given as “+ (<20%)”. The “Reaction area, HLC 28” value in [8] (human lung cancer surgical specimen HLC 28) is reported as “++ (50~20%)”. Besides, in [8] (human lung cancer surgical specimen HLC 29), the “Reaction area, HLC 29” value was “- (0%)”. The “Reaction area, HLC 30” value in data set [8] (human lung cancer surgical specimen HLC 30) was “++ (50~20%)”. In data set [8] (human lung cancer surgical specimen HLC 31), the “Reaction area, HLC 31” value is “++ (50~20%)”. Further, in data set [8] (human lung cancer surgical specimen HLC 32), the “Reaction area, HLC 32” value was “- (0%)”. Besides, in data set [8] (human lung cancer surgical specimen HLC 33), the “Reaction area, HLC 33” value is “++ (50~20%)”. The “Reaction area, HLC 34” value in [8] (human lung cancer surgical specimen HLC 34) is given as “+++ (>50%)”. In data set [8] (human lung cancer surgical specimen HLC 35), the “Reaction area, HLC 35” value is recorded as “+ (<20%)”. The “Reaction area, HLC 36” value in data set [8] (human lung cancer surgical specimen HLC 36) was “++ (50~20%)”. The “Immunohistochemical localization of phage in normal organs after i.v. injection” value with CL1-5-derived tumors (brain, heart and lung tissues) is recorded as “no reaction product detected”. For the same compound, the “Phage concentration in tumor masses relative to control organs” value with CL1-5-derived tumors (i.v. 10^9 pfu, recovered after perfusion, control organs brain, heart and lungs) is 15 fold. The “Immunohistochemical localization of phage in tumor tissues after i.v. injection” value with CL1-5-derived tumors (tumor sections, anti-M13 mAb) is given as “localize in tumor tissues”.
`COc1cccc2c1C(=O)c1c(O)c3c(c(O)c1C2=O)C[C@@](O)(C(=O)CO)C[C@@H]3O[C@H]1C[C@H](N)[C@H](O)[C@H](C)O1` [FD, doxorubicin]: in the data set on CL1-5-derived xenografts, the “Tumor size smaller than that in the PBS group” value is 16%. Also, in the data set on H460-derived xenografts, the “Reduction of tumor size compared with PBS group” value was found to be 14%. Besides, the “Blood concentration of doxorubicin after administration” value in [9] (tail vein, spectrofluorometry) is “drops to background level within one hour”. Moreover, the “AUC0-48 h, Nuclear” value in data set [9] (nuclear doxorubicin in tumor) is on record as 3.7 μg h/g tumor. In [9] (tumor cell nuclei, spectrofluorometry), the “AUC0–48 hours of bioavailable doxorubicin (bound to nuclei)” value turned out to be 3.7 µg·h/g. Moreover, in the data set on NSCLC xenografts, the “Areas of tumor sections with detectable doxorubicin” value is on record as “no detectable doxorubicin”.
As for “DMPKQLLAPWYY [PC5-4, phage clone displaying […]]”, the “Recovery of PC5-4 phage from tumor versus control organs” value in the data set on CL1-5-derived tumors (i.v., recovered after perfusion, SCID mice bearing NSCLC xenografts (Fig. S4)) is given as “higher than from control organs”.
